Reference: BigSolDB 2.1

C[C@@H]1CC[C@@]2(OC1)O[C@H]1C[C@H]3[C@@H]4CC=C5C[C@@H](O)CC[C@]5(C)[C@H]4CC[C@]3(C)[C@H]1[C@@H]2C
solubility (mole fraction)
Details	in n-heptanol	in n-hexanol
300.15 K	–	0.00806
302.26 K	0.0088	–
303.35 K	–	0.00875
305.45 K	0.00959	0.00905
307.65 K	0.0101	–
308.15 K	–	0.00957
309.9 K	0.0106	0.0101
312.12 K	0.0112	0.0107
312.46 K	0.0119	0.0113
313.79 K	–	0.0119
314.11 K	0.0126	–
315.8 K	0.0133	0.0126
317.35 K	–	0.0132
317.75 K	0.014	–
319.26 K	–	0.0139
320.05 K	0.0147	–
320.77 K	–	0.0147
321.07 K	0.0155	–
321.95 K	–	0.0154
323.22 K	0.0163	–
323.95 K	–	0.0161
324.65 K	0.0171	–
325.05 K	–	0.0167
325.35 K	0.0179	–
326.2 K	–	0.0174
327.45 K	0.0188	–
327.95 K	–	0.0181
328.51 K	0.0196	–
329.6 K	0.0202	0.0188
